Measured values from the NIST ThermoML archive (doi:10.1016/j.tca.2014.06.031).

What was measured:
[1] = xn = mol fraction of the nth substance listed; details: 101 kPa, Liquid; for speed of sound: Frequency=3 MHz, Sing-around technique in a fixed-path interferometer; for mass density: Vibrating tube method
[2] = refractive index (Na D-line) (dimensionless); xn = mol fraction of the nth substance listed; details: 101 kPa, Liquid, Standard Abbe refractometry

CCCCCCC(=O)O [heptanoic acid] + CCCCC(=O)O
Details	mass density, [1] [kg/m3]	refractive index, [2]	speed of sound, [1] [m/s]
293.15 K, x1 = 0.0641	937.59	1.4099	1238.8
293.15 K, x1 = 0.1207	936.02	1.4111	1242.9
293.15 K, x1 = 0.2317	933.14	1.41293	1250.6
293.15 K, x1 = 0.3413	930.46	1.41469	1257.9
293.15 K, x1 = 0.4383	928.25	1.41617	1264.1
293.15 K, x1 = 0.5402	926.08	1.4176	1270.3
293.15 K, x1 = 0.6442	923.97	1.41903	1276.3
293.15 K, x1 = 0.7342	922.25	1.42021	1281.4
293.15 K, x1 = 0.8259	920.58	1.42135	1286.4
293.15 K, x1 = 0.9173	919	1.42244	1291.2
293.15 K, x1 = 0.962	918.26	1.42297	1293.4
293.15 K, x1 = 1	917.65	1.42336	1295.4
298.15 K, x1 = 0.0641	933.06	1.40789	1220.8
298.15 K, x1 = 0.1207	931.51	1.40904	1225
298.15 K, x1 = 0.2317	928.68	1.41092	1232.8
298.15 K, x1 = 0.3413	926.05	1.41267	1240.1
298.15 K, x1 = 0.4383	923.88	1.41413	1246.3
298.15 K, x1 = 0.5402	921.74	1.41562	1252.5
298.15 K, x1 = 0.6442	919.68	1.41705	1258.6
298.15 K, x1 = 0.7342	917.98	1.4182	1263.7
298.15 K, x1 = 0.8259	916.35	1.41936	1268.7
298.15 K, x1 = 0.9173	914.79	1.42048	1273.5
298.15 K, x1 = 0.962	914.07	1.42099	1275.8
298.15 K, x1 = 1	913.47	1.42138	1277.7
303.15 K, x1 = 0.0641	928.52	1.40585	1202.7
303.15 K, x1 = 0.1207	926.99	1.40698	1206.9
303.15 K, x1 = 0.2317	924.22	1.40886	1214.7
303.15 K, x1 = 0.3413	921.64	1.41062	1222.1
303.15 K, x1 = 0.4383	919.51	1.41208	1228.3
303.15 K, x1 = 0.5402	917.4	1.41356	1234.6
303.15 K, x1 = 0.6442	915.38	1.41498	1240.7
303.15 K, x1 = 0.7342	913.71	1.4162	1245.8
303.15 K, x1 = 0.8259	912.11	1.41733	1250.8
303.15 K, x1 = 0.9173	910.58	1.41842	1255.7
303.15 K, x1 = 0.962	909.87	1.41896	1257.9
303.15 K, x1 = 1	909.29	1.41935	1259.9
308.15 K, x1 = 0.0641	923.98	1.40383	1184.8
308.15 K, x1 = 0.1207	922.48	1.40496	1189
308.15 K, x1 = 0.2317	919.75	1.40684	1196.9
308.15 K, x1 = 0.3413	917.23	1.40857	1204.2
308.15 K, x1 = 0.4383	915.14	1.41004	1210.5
308.15 K, x1 = 0.5402	913.07	1.41151	1216.8
308.15 K, x1 = 0.6442	911.08	1.41294	1223
308.15 K, x1 = 0.7342	909.45	1.41413	1228.1
308.15 K, x1 = 0.8259	907.87	1.41531	1233.1
308.15 K, x1 = 0.9173	906.38	1.41643	1238
308.15 K, x1 = 0.962	905.68	1.41695	1240.3
308.15 K, x1 = 1	905.11	1.41733	1242.2
313.15 K, x1 = 0.0641	919.44	1.40175	1167
313.15 K, x1 = 0.1207	917.97	1.40283	1171.2
313.15 K, x1 = 0.2317	915.29	1.40471	1179.1
313.15 K, x1 = 0.3413	912.82	1.40649	1186.6
313.15 K, x1 = 0.4383	910.77	1.40796	1192.9
313.15 K, x1 = 0.5402	908.74	1.40944	1199.2
313.15 K, x1 = 0.6442	906.79	1.41086	1205.4
313.15 K, x1 = 0.7342	905.19	1.41209	1210.5
313.15 K, x1 = 0.8259	903.64	1.41324	1215.6
313.15 K, x1 = 0.9173	902.17	1.41437	1220.4
313.15 K, x1 = 0.962	901.49	1.4149	1222.7
313.15 K, x1 = 1	900.94	1.4153	1224.7

CCCCC(=O)O [pentanoic acid] + CCCC(=O)O
Details	mass density, [1] [kg/m3]	refractive index, [2]	speed of sound, [1] [m/s]
293.15 K, x2 = 0	939.41	1.4084	1234
293.15 K, x2 = 0.0472	940.14	1.40813	1232.3
293.15 K, x2 = 0.0938	940.86	1.4077	1230.6
293.15 K, x2 = 0.1944	942.46	1.40676	1226.9
293.15 K, x2 = 0.2928	944.08	1.40581	1223.3
293.15 K, x2 = 0.3946	945.82	1.40481	1219.5
293.15 K, x2 = 0.4922	947.56	1.40383	1215.8
293.15 K, x2 = 0.5938	949.45	1.40278	1211.9
293.15 K, x2 = 0.6929	951.38	1.40174	1208
293.15 K, x2 = 0.7973	953.48	1.4006	1203.8
293.15 K, x2 = 0.895	955.52	1.39949	1199.9
298.15 K, x2 = 0	934.85	1.40641	1216
298.15 K, x2 = 0.0472	935.55	1.40607	1214.3
298.15 K, x2 = 0.0938	936.26	1.40563	1212.6
298.15 K, x2 = 0.1944	937.82	1.40469	1208.9
298.15 K, x2 = 0.2928	939.4	1.40374	1205.2
298.15 K, x2 = 0.3946	941.11	1.40274	1201.4
298.15 K, x2 = 0.4922	942.81	1.40175	1197.6
298.15 K, x2 = 0.5938	944.66	1.4007	1193.6
298.15 K, x2 = 0.6929	946.54	1.39965	1189.7
298.15 K, x2 = 0.7973	948.6	1.3985	1185.4
298.15 K, x2 = 0.895	950.6	1.39744	1181.4
303.15 K, x2 = 0	930.29	1.40438	1197.9
303.15 K, x2 = 0.0472	930.96	1.40399	1196.2
303.15 K, x2 = 0.0938	931.65	1.40355	1194.5
303.15 K, x2 = 0.1944	933.18	1.4026	1190.7
303.15 K, x2 = 0.2928	934.73	1.40164	1187
303.15 K, x2 = 0.3946	936.39	1.40063	1183.1
303.15 K, x2 = 0.4922	938.05	1.39964	1179.3
303.15 K, x2 = 0.5938	939.87	1.39857	1175.2
303.15 K, x2 = 0.6929	941.71	1.39751	1171.2
303.15 K, x2 = 0.7973	943.73	1.39639	1166.9
303.15 K, x2 = 0.895	945.68	1.39533	1162.8
308.15 K, x2 = 0	925.73	1.40234	1179.9
308.15 K, x2 = 0.0472	926.37	1.4019	1178.2
308.15 K, x2 = 0.0938	927.04	1.40146	1176.5
308.15 K, x2 = 0.1944	928.53	1.40051	1172.7
308.15 K, x2 = 0.2928	930.05	1.39955	1168.9
308.15 K, x2 = 0.3946	931.68	1.39853	1164.9
308.15 K, x2 = 0.4922	933.3	1.39753	1161
308.15 K, x2 = 0.5938	935.08	1.39646	1156.9
308.15 K, x2 = 0.6929	936.87	1.39541	1152.9
308.15 K, x2 = 0.7973	938.85	1.39431	1148.5
308.15 K, x2 = 0.895	940.76	1.39326	1144.3
313.15 K, x2 = 0	921.16	1.4003	1162.1
313.15 K, x2 = 0.0472	921.78	1.39983	1160.4
313.15 K, x2 = 0.0938	922.44	1.39937	1158.6
313.15 K, x2 = 0.1944	923.89	1.39841	1154.8
313.15 K, x2 = 0.2928	925.37	1.39745	1151
313.15 K, x2 = 0.3946	926.97	1.39642	1146.9
313.15 K, x2 = 0.4922	928.55	1.39542	1143
313.15 K, x2 = 0.5938	930.29	1.39437	1138.9
313.15 K, x2 = 0.6929	932.04	1.39332	1134.7
313.15 K, x2 = 0.7973	933.98	1.39222	1130.2
313.15 K, x2 = 0.895	935.84	1.39118	1126
